Data on 24 compounds can be found in patent US9725449B2, “Tricyclic compounds as anticancer agents” (BRISTOL-MYERS SQUIBB COMPANY, priority 2015, dated 2017).

For the test, the target named is BRD4 (Homo sapiens, UniProt O60885). As to the kind of experiment: Time resolved fluorescence resonance energy transfer (TR-FRET) binding assay, bromodomain BRD4. The conditions noted are these: one of the FRET assays described; read-out: FRET BRD4 IC50.
With `[2H]C([2H])([2H])c1nnn(C)c1-c1cc2c(cn1)c1ncc(C(C)(C)O)cc1n2[C@H](c1ccccc1)C1CCOCC1` [Example 364, 2-{11-[4-(^2H3)Methyl-1-methyl-1H-1,2,3-triazol-5-yl]-8-[(S)-(oxan-4-yl)(phenyl)methyl]-3,8,12-triazatricyclo[7.4.0.0^2,^7]trideca-1(9),2,4,6,10,12-hexaen-5-yl}propan-2-ol], the IC50 (as a rule, the concentration that gives 50% inhibition) was less than 10 nM.

Turning to `[2H]C([2H])([2H])c1nnn(C)c1-c1cnc2c3ccc(C4=CCSCC4)nc3n([C@H](c3ccccc3)C3CCOCC3)c2c1` [Example 203, 11-(3,6-Dihydro-2H-thiopyran-4-yl)-5-[4-(^2H3)methyl-1-methyl-1H-1,2,3-triazol-5-yl]-8-[(S)-oxan-4-yl(phenyl)methyl]-3,8,10-triazatricyclo[7.4.0.0^2,^7]trideca-1(9),2(7),3,5,10,12-hexaene], the IC50 is less than 10 nM.

Consider `[2H]C([2H])([2H])c1nnn(C)c1-c1cnc2c3ccc(-c4c(C([2H])([2H])[2H])nnn4C)nc3n(C(c3ccccc3)C3CCC(F)(F)CC3)c2c1` (stereo not drawn) [Example 261, 8-[(4,4-Difluorocyclohexyl)(phenyl)methyl]-5,11-bis[4-(^2H3)methyl-1-methyl-H-1,2,3-triazol-5-yl]-3,8,10-triazatricyclo[7.4.0.0^2,^7]trideca-1(13),2(7),3,5,9,11-hexaene], for which the concentration for half-maximal inhibition (IC50) is less than 10 nM.

As to `Cc1noc(C)c1-c1cnc2c3c(NS(=O)(=O)C4CC4)ncc(S(C)(=O)=O)c3n([C@H](c3ccccc3)C3CCOCC3)c2c1` [Example 98, N-[5-(Dimethyl-1,2-oxazol-4-yl)-10-methanesulfonyl-8-[(S)-oxan-4-yl(phenyl)methyl]-3,8,12-triazatricyclo[7.4.0.0^2,^7]trideca-1(13),2(7),3,5,9,11-hexaen-13-yl]cyclopropanesulfonamide], the concentration for half-maximal inhibition (IC50) is less than 10 nM.

As to `[2H]C([2H])([2H])c1nnn(C)c1-c1cnc2c3ccc(N4CC(=O)NC(=O)C4)nc3n([C@H](c3ccccc3)C3CCOCC3)c2c1` [Example 212, 4-{5-[4-(^2H3)Methyl-1-methyl-1H-1,2,3-triazol-5-yl]-8-[(S)-oxan-4-yl(phenyl)methyl]-3,8,10-triazatricyclo[7.4.0.0^2,^7]trideca-1(9),2(7),3,5,10,12-hexaen-11-yl}piperazine-2,6-dione], the IC50 is less than 10 nM.

Regarding `COCCNc1nccc2c3ncc(-c4c(C)nnn4C)cc3n([C@H](c3ccccc3)C3CCOCC3)c12` [Example 9, 5-(Dimethyl-1H-1,2,3-triazol-5-yl)-N-(2-methoxyethyl)-8-[(S)-oxan-4-yl(phenyl)methyl]-3,8,11-triazatricyclo[7.4.0.0^2,^7]trideca-1(13),2(7),3,5,9,11-hexaen-10-amine], the IC50 was less than 10 nM.

Turning to `CCS(=O)(=O)Nc1ncc(S(C)(=O)=O)c2c1c1ncc(-c3c(C)noc3C)cc1n2[C@H](c1ccccc1)C1CCOCC1` [Example 99, N-[5-(Dimethyl-1,2-oxazol-4-yl)-10-methanesulfonyl-8-[(S)-oxan-4-yl(phenyl)methyl]-3,8,12-triazatricyclo[7.4.0.0^2,^7]trideca-1(13),2(7),3,5,9,11-hexaen-13-yl]ethane-1-sulfonamide], the IC50 is less than 1 nM.

Consider `[2H]C([2H])([2H])c1nnn(C)c1-c1cnc2c3cnc(S(C)(=O)=O)cc3n([C@H](c3ccccc3F)C3CCOCC3)c2c1` [Example 245, 8-[(S)-(2-Fluorophenyl)(oxan-4-yl)methyl]-11-methanesulfonyl-5-[4-(^2H3)methyl-1-methyl-1H-1,2,3-triazol-5-yl]-3,8,12-triazatricyclo[7.4.0.0^2,^7]trideca-1(13),2(7),3,5,9,11-hexaene], for which the IC50 was less than 10 nM.

Turning to `Cc1nnn(C)c1-c1cnc2c3cnc(-c4c(C)nnn4C)nc3n([C@H](c3ccccc3)C3CCOCC3)c2c1` [Example 155, 5,11-Bis(dimethyl-1H-1,2,3-triazol-5-yl)-8-[(S)-oxan-4-yl(phenyl)methyl]-3,8,10,12-tetraazatricyclo[7.4.0.0^2,^7]trideca-1(9),2(7),3,5,10,12-hexaene], the IC50 was less than 10 nM.

Take `[2H]C([2H])([2H])c1nnn(C)c1-c1cnc2c3c(N[C@H](C)C4CC4)ncc(S(C)(=O)=O)c3n([C@H](c3ccccc3)C3CCOCC3)c2c1` [Example 114, N-[(1R)-1-Cyclopropylethyl]-10-methanesulfonyl-5-[4-(^2H3)methyl-1-methyl-1H-1,2,3-triazol-5-yl]-8-[(S)-oxan-4-yl(phenyl)methyl]-3,8,12-triazatricyclo[7.4.0.0^2,^7]trideca-1(13),2(7),3,5,9,11-hexaen-13-amine]: the IC50 is less than 10 nM.

With `Cc1noc(C)c1-c1cnc2c3cnc(Cl)cc3n([C@H](c3ccc(F)cc3)C3CCOCC3)c2c1` [Example 326], the 50% inhibitory concentration (IC50) is less than 10 nM.

Consider `Cc1nnn(C)c1-c1cnc2c3cnc(Cl)cc3n(C(c3ncccc3F)C3CCOCC3)c2c1` (single isomer, unassigned) [Example 317], for which the IC50 is less than 1500 nM.

With `[2H]C([2H])([2H])c1nnn(C)c1-c1cnc2c3cnc(C(C)(C)O)cc3n(C(CCC)c3ncccc3F)c2c1` (stereo not drawn) [Example 359, 2-{8-[1-(3-Fluoropyridin-2-yl)butyl]-5-[4-(^2H3)methyl-1-methyl-1H-1,2,3-triazol-5-yl]-3,8,12-triazatricyclo[7.4.0.0^2,^7]trideca-1(13),2(7),3,5,9,11-hexaen-11-yl}propan-2-ol], the half-maximal inhibitory concentration (IC50) was less than 10 nM.

For `[2H]C([2H])([2H])c1nnn(C)c1-c1cnc2c3c(OCC)ncc(S(C)(=O)=O)c3n([C@H](c3ccccc3F)C3CCOCC3)c2c1` [Example 62, 13-Ethoxy-8-[(S)-(2-fluorophenyl)(oxan-4-yl)methyl]-10-methanesulfonyl-5-[4-(^2H3)methyl-1-methyl-1H-1,2,3-triazol-5-yl]-3,8,12-triazatricyclo[7.4.0.0^2,^7]trideca-1(13),2(7),3,5,9,11-hexaene], the IC50 is less than 1 nM.

For the compound `COc1ncc(C(C)(C)O)c2c1c1ncc(-c3c(C)noc3C)cc1n2[C@H](c1ccccc1)C1CCOCC1` [Example 141, 2-[5-(Dimethyl-1,2-oxazol-4-yl)-13-methoxy-8-[(S)-oxan-4-yl(phenyl)methyl]-3,8,12-triazatricyclo[7.4.0.0^2,^7]trideca-1(9),2,4,6,10,12-hexaen-10-yl]propan-2-ol], the IC50 is less than 10 nM.

For the compound `[2H]C([2H])([2H])c1nnn(C)c1-c1cnc2c3c(OCC(F)F)ncc(S(C)(=O)=O)c3n([C@H](c3ccccc3)C3CCOCC3)c2c1` [Example 112, 13-(2,2-Difluoroethoxy)-10-methanesulfonyl-5-[4-(^2H3)methyl-1-methyl-1H-1,2,3-triazol-5-yl]-8-[(S)-oxan-4-yl(phenyl)methyl]-3,8,12-triazatricyclo[7.4.0.0^2,^7]trideca-1(13),2(7),3,5,9,11-hexaene], the IC50 was less than 1 nM.

As for `COc1ncc(C(=O)N2CC(F)C2)c2c1c1ncc(-c3c(C)nnn3C)cc1n2[C@H](c1ccccc1)C1CCOCC1` [Example 137, 5-(dimethyl-1H-1,2,3-triazol-5-yl)-10-(3-fluoroazetidine-1-carbonyl)-13-methoxy-8-[(S)-oxan-4-yl(phenyl)methyl]-3,8,12-triazatricyclo[7.4.0.0^2,^7]trideca-1(9),2,4,6,10,12-hexaene], the concentration for half-maximal inhibition (IC50) was less than 10 nM.

In the case of `[2H]C([2H])([2H])c1nnn(C)c1-c1cnc2c3cncc(C(C)(C)O)c3n([C@H](c3ccccc3)C3CCOCC3)c2c1` [Example 291, 2-{5-[4-(^2H3)Methyl-1-methyl-1H-1,2,3-triazol-5-yl]-8-[(S)-oxan-4-yl(phenyl)methyl]-3,8,12-triazatricyclo[7.4.0.0^2,^7]trideca-1(9),2,4,6,10,12-hexaen-10-yl}propan-2-ol], the IC50 is less than 1 nM.

`Cc1nnn(C)c1-c1cnc2c3ccnc(F)c3n([C@H](c3ccccc3F)C3CCOCC3)c2c1` [Example 29, 5-(Dimethyl-1H-1,2,3-triazol-5-yl)-10-fluoro-8-[(S)-(2-fluorophenyl)(oxan-4-yl)methyl]-3,8,11-triazatricyclo[7.4.0.0^2,^7]trideca-1(13),2(7),3,5,9,11-hexaene]: the IC50 was less than 1 nM.

`[2H]C([2H])([2H])c1nnn(C)c1-c1cnc2c3c(OC(C)C)ncc(S(C)(=O)=O)c3n([C@H](c3ccccc3)C3CCOCC3)c2c1` [Example 58, 10-Methanesulfonyl-5-[4-(^2H3)methyl-1-methyl-1H-1,2,3-triazol-5-yl]-8-[(S)-oxan-4-yl(phenyl)methyl]-13-(propan-2-yloxy)-3,8,12-triazatricyclo[7.4.0.0^2,^7]trideca-1(13),2(7),3,5,9,11-hexaene]: the 50% inhibitory concentration (IC50) is less than 1 nM.

As to `Cc1nnn(C)c1-c1cnc2c3ccc(C#N)nc3n([C@H](c3ccccc3)C3CCOCC3)c2c1` [Example 169, 5-(Dimethyl-1H-1,2,3-triazol-5-yl)-8-[(S)-oxan-4-yl(phenyl)methyl]-3,8,10-triazatricyclo[7.4.0.0^2,^7]trideca-1(9),2(7),3,5,10,12-hexaene-11-carbonitrile], the IC50 was less than 10 nM.

For `Cc1noc(C)c1-c1cnc2c3ccc(S(C)(=O)=O)nc3n([C@H](c3ccccc3F)C3CCOCC3)c2c1` [Example 222, 5-(Dimethyl-1,2-oxazol-4-yl)-8-[(S)-(2-fluorophenyl)(oxan-4-yl)methyl]-11-methanesulfonyl-3,8,10-triazatricyclo[7.4.0.0^2,^7]trideca-1(13),2(7),3,5,9,11-hexaene], the IC50 was less than 10 nM.

On to `Cc1nnn(C)c1-c1cnc2c3ccc(S(C)(=O)=O)nc3n([C@H](c3ccccc3)C3CCOCC3)c2c1` [Example 145, 5-(Dimethyl-1H-1,2,3-triazol-5-yl)-11-methanesulfonyl-8-[(S)-oxan-4-yl(phenyl)methyl]-3,8,10-triazatricyclo[7.4.0.0^2,^7]trideca-1(13),2(7),3,5,9,11-hexaene], for which the IC50 was less than 10 nM.

For `[2H]C([2H])([2H])c1nnn(C)c1-c1cnc2c3cc(Cl)cnc3n([C@H](c3ccccc3)C3CCOCC3)c2c1` [Example 347, 12-Chloro-5-[4-(^2H3)methyl-1-methyl-1H-1,2,3-triazol-5-yl]-8-[(S)-oxan-4-yl(phenyl)methyl]-3,8,10-triazatricyclo[7.4.0.0^2,^7]trideca-1(13),2(7),3,5,9,11-hexaene], the IC50 is less than 1500 nM.
